We go through four compounds from ChEMBL document CHEMBL1201862, “PubChem BioAssay data set” (2004).

Experiment [1] addresses Serine/threonine-protein phosphatase PP1-alpha catalytic subunit (Homo sapiens, UniProt P62136). Kind of experiment: inhibition of protein phosphatase 1 activity – biochemical, fluorescence, dose response (AID 2394).
Experiment [2] addresses Serine/threonine-protein phosphatase (Homo sapiens, UniProt Q9BPW0). Nature of the experiment: inhibition of protein phosphatase 5 activity – biochemical, fluorescence, dose response (AID 2395).
Experiment [3] is described as follows: Luminescence Cell-Based Dose Confirmation HTS to Identify Inhibitors of Polyadenylation. It is filed as functional.
The target in experiment [4] is T1, Bcl-2-related protein A1 (Mus musculus, UniProt Q07440).
T1 sequence (Q07440 whole entry): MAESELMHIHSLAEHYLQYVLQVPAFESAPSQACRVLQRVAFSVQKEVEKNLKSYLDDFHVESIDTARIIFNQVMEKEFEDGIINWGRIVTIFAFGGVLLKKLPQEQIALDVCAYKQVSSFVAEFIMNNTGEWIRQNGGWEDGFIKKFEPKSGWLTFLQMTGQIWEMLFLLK
Kind of experiment: displacement of Bid BH3 peptide from Bfl-1 – biochemical, fluorescence polarization, FITC-Bid, mouse, primary screen (AID 432).

The target in a further experiment is Tumor necrosis factor (Homo sapiens, UniProt P01375). Nature of the experiment: analog potency on TNFa NF-kB signaling – cell-based, set 3, SAR follow-up (AID 2801). The class given is functional.
Tumor necrosis factor, sequence (P01375 whole entry): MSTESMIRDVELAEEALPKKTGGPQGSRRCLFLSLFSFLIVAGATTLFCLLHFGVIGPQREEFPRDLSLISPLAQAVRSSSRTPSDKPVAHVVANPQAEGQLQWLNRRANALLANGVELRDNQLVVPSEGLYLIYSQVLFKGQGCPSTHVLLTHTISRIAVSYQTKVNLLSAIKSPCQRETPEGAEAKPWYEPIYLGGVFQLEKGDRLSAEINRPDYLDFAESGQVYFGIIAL
Experiment [5] in a line: loss of viability in HepG2 cells – cell-based, CellTiter-Glo, cherry-picked, cytotoxicity control for Shn3 inhibitor project, dose response (AID 624134). It is filed as functional. A general note: Cellular ATP, detected with luciferase, serves as a proxy for viable cell number.
The next experiment deals with Beta-galactosidase (Escherichia coli, UniProt Q8VNN2). Kind of experiment: detection-enzyme interference by beta-gal modulators – biochemical, E. coli enzyme, set 3, artefact control for CCR6 antagonist project, dose response (AID 504712). It is filed as functional.
Beta-galactosidase, sequence (Q8VNN2 whole entry, the tested form may be a part): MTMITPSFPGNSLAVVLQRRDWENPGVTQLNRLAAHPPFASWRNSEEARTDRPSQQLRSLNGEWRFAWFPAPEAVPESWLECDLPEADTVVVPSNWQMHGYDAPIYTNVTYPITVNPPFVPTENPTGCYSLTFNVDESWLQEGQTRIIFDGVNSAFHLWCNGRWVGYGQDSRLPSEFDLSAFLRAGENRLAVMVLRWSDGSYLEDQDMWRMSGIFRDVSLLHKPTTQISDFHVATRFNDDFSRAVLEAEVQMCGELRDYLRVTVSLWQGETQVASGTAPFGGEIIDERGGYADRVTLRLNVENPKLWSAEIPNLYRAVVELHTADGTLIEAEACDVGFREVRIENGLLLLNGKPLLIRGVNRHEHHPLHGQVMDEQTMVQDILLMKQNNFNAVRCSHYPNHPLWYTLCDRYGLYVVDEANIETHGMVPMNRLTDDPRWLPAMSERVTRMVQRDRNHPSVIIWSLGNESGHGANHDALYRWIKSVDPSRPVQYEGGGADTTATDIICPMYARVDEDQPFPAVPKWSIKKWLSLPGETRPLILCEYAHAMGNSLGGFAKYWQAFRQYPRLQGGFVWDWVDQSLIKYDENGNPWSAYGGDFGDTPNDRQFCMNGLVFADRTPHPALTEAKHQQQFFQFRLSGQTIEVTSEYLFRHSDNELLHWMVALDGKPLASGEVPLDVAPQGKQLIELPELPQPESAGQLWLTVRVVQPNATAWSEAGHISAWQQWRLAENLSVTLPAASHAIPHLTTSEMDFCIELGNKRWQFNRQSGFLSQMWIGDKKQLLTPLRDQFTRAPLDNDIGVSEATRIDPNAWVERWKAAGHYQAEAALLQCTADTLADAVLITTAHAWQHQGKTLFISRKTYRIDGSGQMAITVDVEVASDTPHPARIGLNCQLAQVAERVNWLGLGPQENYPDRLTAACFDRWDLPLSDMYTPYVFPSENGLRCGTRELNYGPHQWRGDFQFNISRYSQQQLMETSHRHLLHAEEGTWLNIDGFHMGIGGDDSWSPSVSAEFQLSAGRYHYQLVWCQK
In experiment [6] the target is Nucleotide-binding oligomerization domain-containing protein 2 (Homo sapiens, UniProt Q9HC29). Kind of experiment: inhibition of MDP-driven NOD2 NF-kB reporter – cell-based, set 3, SAR follow-up (AID 2799). The class given is functional.
The next experiment relates to HEK293. Nature of the experiment: SAR analysis of compounds that are cytotoxic to HEK293 - Set 3. [Related pubchem assays (depositor defined):AID1575, AID1578, AID1848, AID1849, AID2001, AID2333, AID2334, AID2335, AID2337, AID2469]. It is filed as functional, cell-based. Particulars: Homo sapiens.
Experiment [7] in a line: HPDE-C7 pancreatic duct cell viability loss – fluorescence, HTS (AID 430). The settings on record: Homo sapiens. It is filed as functional, cell-based.
A short description of experiment [8]: NIH-3T3 fibroblast cytotoxicity, dose response, cytotoxicity control, cell-based, fluorescence, Alamar Blue, secondary assay (AID 2327).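 Also: NIH-3T3 mouse fibroblasts cultured with fluconazole at 8 µg/mL.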 The class given is functional.
Experiment [9] can be described thus: viability loss in HEK293T cells – cell-based, cherry-picks, cytotoxicity control for HIV Vif inhibitor project, dose response (AID 652208). The class given is functional.
Experiment [10] is described as follows: fluconazole-exposed Candida albicans growth modulators – fluorescence, retest, confirmation (AID 2467). It is filed as functional, cell-based.
The target in experiment [11] is T1, Bcl-2-related protein A1. Kind of experiment: Bfl-1 binding inhibitors, SAR follow-up, biochemical, fluorescence polarization (AID 1070).
The nature of experiment [12]: viability loss of HPDE-C7K cells – cell-based, fluorescence, HTS, primary screen (AID 431). The class given is functional. Particulars: Homo sapiens.
Experiment [13] can be described thus: reduction of Shn3 3'UTR-driven luciferase in osteoblasts – cell-based, Clone20 osteoblasts, firefly luciferase, cherry-picked, dose response (AID 624132).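 Also: firefly luciferase luminescence from reporter carrying the Shn3 3'UTR in osteoblasts.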 It is filed as functional.
In experiment [14] the target is T2, Nucleotide-binding oligomerization domain-containing protein 1 (Homo sapiens, UniProt Q9Y239).
T2 sequence (Q9Y239 whole entry): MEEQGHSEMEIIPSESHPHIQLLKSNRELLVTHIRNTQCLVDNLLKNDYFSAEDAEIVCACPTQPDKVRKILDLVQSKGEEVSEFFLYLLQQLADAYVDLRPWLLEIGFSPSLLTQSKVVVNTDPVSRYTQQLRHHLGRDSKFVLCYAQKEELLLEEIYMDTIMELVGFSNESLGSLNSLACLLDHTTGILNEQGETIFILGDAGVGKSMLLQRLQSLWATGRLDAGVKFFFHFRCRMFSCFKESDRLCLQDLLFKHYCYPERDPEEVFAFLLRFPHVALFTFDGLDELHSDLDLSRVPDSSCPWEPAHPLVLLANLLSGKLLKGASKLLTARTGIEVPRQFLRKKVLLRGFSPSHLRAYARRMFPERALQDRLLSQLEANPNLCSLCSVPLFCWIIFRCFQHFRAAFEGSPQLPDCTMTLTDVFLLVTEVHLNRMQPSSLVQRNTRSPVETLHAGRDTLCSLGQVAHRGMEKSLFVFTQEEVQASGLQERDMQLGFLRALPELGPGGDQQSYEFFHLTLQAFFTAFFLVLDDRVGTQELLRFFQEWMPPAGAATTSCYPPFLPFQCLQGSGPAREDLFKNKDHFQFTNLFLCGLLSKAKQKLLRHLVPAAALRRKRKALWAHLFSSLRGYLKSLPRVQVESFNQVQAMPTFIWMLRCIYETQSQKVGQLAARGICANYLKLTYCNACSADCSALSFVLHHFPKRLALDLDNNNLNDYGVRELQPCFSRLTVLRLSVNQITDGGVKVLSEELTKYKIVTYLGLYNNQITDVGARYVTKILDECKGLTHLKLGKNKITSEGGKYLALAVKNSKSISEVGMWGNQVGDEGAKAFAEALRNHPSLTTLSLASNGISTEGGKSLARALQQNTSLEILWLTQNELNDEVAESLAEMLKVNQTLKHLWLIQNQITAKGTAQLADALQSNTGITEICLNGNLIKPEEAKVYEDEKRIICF
Kind of experiment: SAR analysis of compounds that inhibit NOD1 - Set 3. [Related pubchem assays (depositor defined):AID1566, AID1575, AID1578, AID1849, AID1852, AID2333, AID2335, AID2466]. It is filed as functional.

The target in experiment [15] is T3, Hepatocyte nuclear factor 4-alpha (Homo sapiens, UniProt P41235).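 Also: biochemical luminescence-based dose-response counterscreen measuring inhibition of HNF4 dimerization, run alongside a screen for blockers of ABHD5–perilipin-5 interaction; split luciferase complementation of HNF4 fusion proteins in cell lysate measuring dimerization.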
T3 sequence (P41235 whole entry): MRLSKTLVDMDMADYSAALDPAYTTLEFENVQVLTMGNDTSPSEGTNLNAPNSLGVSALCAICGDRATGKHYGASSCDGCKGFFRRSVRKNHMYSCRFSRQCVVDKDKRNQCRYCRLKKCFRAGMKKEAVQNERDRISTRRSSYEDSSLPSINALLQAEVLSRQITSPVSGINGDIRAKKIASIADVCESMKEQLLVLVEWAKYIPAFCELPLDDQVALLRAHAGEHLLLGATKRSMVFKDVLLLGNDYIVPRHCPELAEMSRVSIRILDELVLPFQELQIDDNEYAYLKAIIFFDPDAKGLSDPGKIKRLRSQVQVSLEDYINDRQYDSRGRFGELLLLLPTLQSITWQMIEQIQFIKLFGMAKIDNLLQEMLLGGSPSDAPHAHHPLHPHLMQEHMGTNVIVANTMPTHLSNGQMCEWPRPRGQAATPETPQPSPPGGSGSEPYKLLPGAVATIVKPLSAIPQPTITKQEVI
It is filed as functional, cell-based.

In experiment [16] the target is G-protein coupled receptor 55 (Homo sapiens, UniProt Q9Y2T6). Kind of experiment: inhibition of LPI-stimulated GPR55 beta-arrestin translocation – imaging, U2OS, beta-arrestin-GFP, LPI agonist, primary screen (AID 2013).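 Also: antagonist potency measured as reduced agonist-driven arrestin aggregation.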 The class given is functional.
G-protein coupled receptor 55, sequence (Q9Y2T6 whole entry, the tested form may be a part): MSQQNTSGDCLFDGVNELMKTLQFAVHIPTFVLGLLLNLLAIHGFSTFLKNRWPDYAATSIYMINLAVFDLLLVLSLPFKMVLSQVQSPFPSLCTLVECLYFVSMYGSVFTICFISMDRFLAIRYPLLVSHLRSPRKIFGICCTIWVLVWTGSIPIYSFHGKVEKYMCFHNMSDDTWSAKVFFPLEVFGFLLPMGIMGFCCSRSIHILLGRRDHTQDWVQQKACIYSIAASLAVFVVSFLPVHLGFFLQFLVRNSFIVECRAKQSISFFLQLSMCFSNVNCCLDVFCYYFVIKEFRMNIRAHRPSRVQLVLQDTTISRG
Experiment [17] is described as follows: Fluorescence-based cell-based high throughput dose response assay for inhibitors of the interaction of nucleotide-binding oligomerization domain containing 2 (NOD2) and the receptor-interacting serine-threonine kinase 2 (RIPK2). The class given is functional, Homo sapiens. The settings on record: Homo sapiens.
In another experiment the target is Beta Lactamase (Pseudomonas aeruginosa, UniProt Q932Y6). Nature of the experiment: BLA reporter interference, concentration series – BLA reporter cells, FRET fluorescence, artefact control for NOD2-RIPK2 interaction inhibitor project, dose response (AID 651552). The class given is functional, cell-based.
Beta Lactamase, sequence (Q932Y6 whole entry): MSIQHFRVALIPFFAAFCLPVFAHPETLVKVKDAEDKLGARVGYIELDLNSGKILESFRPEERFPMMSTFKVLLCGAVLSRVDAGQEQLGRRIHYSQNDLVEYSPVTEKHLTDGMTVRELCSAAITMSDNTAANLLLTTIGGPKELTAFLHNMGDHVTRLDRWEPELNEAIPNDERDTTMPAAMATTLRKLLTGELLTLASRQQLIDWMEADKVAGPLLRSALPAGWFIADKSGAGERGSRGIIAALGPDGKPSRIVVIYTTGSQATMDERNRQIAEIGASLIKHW
Experiment [18] in a line: reduced cellular PGC1a acetyl-lysine signal – cell-based, cherry-picked samples, dose response (AID 720514).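 Also: potency may reflect raised or lowered acetylation signal.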 The class given is functional.
Experiment [19] deals with T1, Bcl-2-related protein A1. Kind of experiment: small-molecule antagonists of Bfl-1/BH3 interaction – biochemical, TR-FRET, mouse Bfl-1, confirmation (AID 621).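 Also: TR-FRET binding of GST-Bfl-1 to FITC-labelled Bid peptide via terbium antibody.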 In general terms: TR-FRET usually uses a lanthanide donor and a delayed reading to cut background.
For experiment [20], the target named is Glyceraldehyde-3-phosphate dehydrogenase (Homo sapiens, UniProt P04406).
Glyceraldehyde-3-phosphate dehydrogenase, sequence (P04406 whole entry): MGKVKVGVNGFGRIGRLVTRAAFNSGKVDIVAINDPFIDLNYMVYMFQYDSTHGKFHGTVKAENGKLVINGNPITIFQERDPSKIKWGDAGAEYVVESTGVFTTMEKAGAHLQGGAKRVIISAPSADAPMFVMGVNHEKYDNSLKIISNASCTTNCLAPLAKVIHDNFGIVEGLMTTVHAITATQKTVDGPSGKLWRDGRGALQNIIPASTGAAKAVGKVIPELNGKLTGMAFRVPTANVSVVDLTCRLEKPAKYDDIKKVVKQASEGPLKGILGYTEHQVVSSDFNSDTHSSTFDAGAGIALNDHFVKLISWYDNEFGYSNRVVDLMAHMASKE
The nature of experiment [21]: non-specific 3'UTR reporter inhibition in Clone20-Shn3RL – cell-based, Renilla luciferase, cherry-picked, counter-screen for Shn3 inhibitor project, dose response (AID 624133). The class given is functional. (In general: A counterscreen serves to expose hits that act by an unwanted route or on another target.)
In experiment [22] the target is Protein-tyrosine kinase 2-beta (Homo sapiens, UniProt Q14289).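 Also: potency of inhibitors of PYK2 kinase phosphorylation of poly-GT substrate.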
Protein-tyrosine kinase 2-beta, sequence (Q14289 whole entry): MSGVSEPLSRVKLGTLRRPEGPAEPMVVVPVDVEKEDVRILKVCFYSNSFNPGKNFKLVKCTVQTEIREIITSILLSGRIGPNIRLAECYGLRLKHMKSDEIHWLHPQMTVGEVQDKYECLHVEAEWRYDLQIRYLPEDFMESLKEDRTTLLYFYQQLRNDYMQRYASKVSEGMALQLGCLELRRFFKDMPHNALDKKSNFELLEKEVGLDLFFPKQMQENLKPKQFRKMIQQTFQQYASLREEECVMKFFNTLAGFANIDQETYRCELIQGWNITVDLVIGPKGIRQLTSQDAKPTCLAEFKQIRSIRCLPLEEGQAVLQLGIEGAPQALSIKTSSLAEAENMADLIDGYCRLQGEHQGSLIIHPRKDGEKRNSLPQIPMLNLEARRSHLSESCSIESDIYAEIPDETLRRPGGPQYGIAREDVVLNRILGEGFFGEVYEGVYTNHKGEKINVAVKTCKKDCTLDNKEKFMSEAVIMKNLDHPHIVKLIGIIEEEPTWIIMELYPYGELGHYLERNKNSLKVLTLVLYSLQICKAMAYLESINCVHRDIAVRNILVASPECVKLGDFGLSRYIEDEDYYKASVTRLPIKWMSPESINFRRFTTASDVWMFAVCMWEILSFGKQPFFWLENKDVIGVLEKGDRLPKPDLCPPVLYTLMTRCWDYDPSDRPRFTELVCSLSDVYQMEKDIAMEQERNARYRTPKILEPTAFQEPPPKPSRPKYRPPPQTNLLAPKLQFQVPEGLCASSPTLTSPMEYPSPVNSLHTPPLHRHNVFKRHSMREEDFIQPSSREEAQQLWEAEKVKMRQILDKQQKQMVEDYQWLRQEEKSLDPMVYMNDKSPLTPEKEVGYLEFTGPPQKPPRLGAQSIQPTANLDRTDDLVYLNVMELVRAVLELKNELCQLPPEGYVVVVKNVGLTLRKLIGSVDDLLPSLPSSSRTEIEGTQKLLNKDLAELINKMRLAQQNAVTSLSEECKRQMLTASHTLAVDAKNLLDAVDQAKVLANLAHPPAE

Broadly, the IC50 is the point on the concentration scale where inhibition reaches its midpoint. Broadly, the EC50 is the concentration needed to bring the measured effect to its halfway point. Broadly, the AC50 is the midpoint of the concentration-response curve, whichever way the signal moves.

“And” between values parts separate entries of the source, which are not always exact repeats. Identical values can stand only once. The source made the active and inactive calls.

Serine/threonine-protein phosphatase, sequence (Q9BPW0 whole entry): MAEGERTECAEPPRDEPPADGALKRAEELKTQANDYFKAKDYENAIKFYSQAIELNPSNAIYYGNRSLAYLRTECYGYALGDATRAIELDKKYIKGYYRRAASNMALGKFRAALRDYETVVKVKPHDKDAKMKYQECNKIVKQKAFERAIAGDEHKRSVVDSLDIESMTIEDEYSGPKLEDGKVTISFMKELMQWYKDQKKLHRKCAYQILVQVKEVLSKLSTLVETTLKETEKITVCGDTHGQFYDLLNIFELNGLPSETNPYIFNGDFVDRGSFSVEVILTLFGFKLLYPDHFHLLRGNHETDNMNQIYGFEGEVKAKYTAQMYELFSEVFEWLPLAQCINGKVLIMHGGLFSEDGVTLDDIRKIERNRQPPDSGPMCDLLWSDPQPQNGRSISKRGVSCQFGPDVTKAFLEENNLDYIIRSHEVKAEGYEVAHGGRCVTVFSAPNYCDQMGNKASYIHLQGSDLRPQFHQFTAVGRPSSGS
Serine/threonine-protein phosphatase PP1-alpha catalytic subunit, sequence (P62136 whole entry): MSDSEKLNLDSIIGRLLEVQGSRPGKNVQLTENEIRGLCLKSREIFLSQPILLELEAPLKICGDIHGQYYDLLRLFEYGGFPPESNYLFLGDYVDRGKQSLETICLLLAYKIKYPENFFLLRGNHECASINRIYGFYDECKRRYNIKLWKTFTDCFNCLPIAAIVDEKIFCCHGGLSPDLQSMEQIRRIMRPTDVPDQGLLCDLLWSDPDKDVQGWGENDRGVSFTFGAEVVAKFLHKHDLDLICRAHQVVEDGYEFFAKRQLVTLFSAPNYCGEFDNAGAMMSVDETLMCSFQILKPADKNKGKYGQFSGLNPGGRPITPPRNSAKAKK

In the case of `O=C(O)c1[nH]nnc1-c1ccccc1`, the half-maximal inhibitory concentration (IC50) is reported as > 67 µM (not active) in experiment [1] and 13 µM (not active) in experiment [2].

For the compound `CS(=O)(=O)N1CCN(CC2CC3C=CC2C3)CC1` (stereo unspecified), the EC50 in [3] was > 120 µM (not active).

`COc1ccc(-c2cc(N)n(S(=O)(=O)c3c(F)c(F)c(F)c(F)c3F)n2)cc1OC`: the half-maximal inhibitory concentration (IC50) was 5.82 µM (active) on Bcl-2-related protein A1 [4]; 10.3 µM (active) on Tumor necrosis factor; > 66.6 µM (inactive) on Beta-galactosidase; 16.4 µM (active) in experiment [6]; > 20 µM (inactive) in the experiment with HEK293; 5.39 µM (active) on Bcl-2-related protein A1 [11]. The 50% inhibitory concentration (IC50) in [14] was 16.2 µM (active); in [15], 6.26 µM (active); in [16], 1.18 µM (active); in experiment [17], 0.951 µM (active); at Beta Lactamase, 34.3 µM (inactive); at Bcl-2-related protein A1 [19] it was 4.33 µM (active) and 4.96 µM (active). In addition, the half-maximal inhibitory concentration (IC50) in experiment [20] was > 100 µM (not active). Further, the AC50 is 20.2 µM (active) in experiment [5]; 3.69 µM (active) in [9]; 0.896 µM (active) in experiment [13]; 8.51 µM (active) in experiment [18]; 4.25 µM (active) in experiment [21]. Moreover, the EC50 was 2.82 µM (active) in [7], 5.96 µM (inconclusive) in experiment [8], 3.9 µM (active) in experiment [10] and 2.15 µM (active) in experiment [12].

As for `COC(=O)Cc1ccc2c3ccccc3n(C)c2c1`, the IC50 in [22] is > 69.5 µM (not active).
